Source: PubChem BioAssay AID2060612 (Molecular Pharmacology Branch, DTP, NCI, 2025)

System: 565232-114-T-J1-PDC complex spheroid viability
Assay: Anticancer human tumor 565232-114-T-J1-PDC patient-derived bladder carcinoma cell line growth inhibition [CLK]
Conditions: for IC50: curve of first compound; for viability, T/C: stronger effect = lower value
Method in brief: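 Multi-cell-type spheroids combined patient-derived tumor cells with HUVEC endothelial cells and human mesenchymal stem cells. Paired agents were dosed in half-log steps down from about clinical Cmax, or from 10 microM where Cmax was unknown.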

[1] = second compound 0.0316 µM, first compound 0.0316 µM
[2] = second compound 0.0316 µM, first compound 0.1 µM
[3] = second compound 0.0316 µM, first compound 0.316 µM
[4] = second compound 0.0316 µM, first compound 1 µM
[5] = second compound 0.0316 µM, first compound 3.16 µM
[6] = second compound 0.0316 µM, first compound 10 µM
[7] = second compound 0.1 µM, first compound 0.0316 µM
[8] = second compound 0.1 µM, first compound 0.1 µM
[9] = second compound 0.1 µM, first compound 0.316 µM
[10] = second compound 0.1 µM, first compound 1 µM
[11] = second compound 0.1 µM, first compound 3.16 µM
[12] = second compound 0.1 µM, first compound 10 µM
[13] = second compound 0.316 µM, first compound 0.0316 µM
[14] = second compound 0.316 µM, first compound 0.1 µM
[15] = second compound 0.316 µM, first compound 0.316 µM
[16] = second compound 0.316 µM, first compound 1 µM
[17] = second compound 0.316 µM, first compound 3.16 µM
[18] = second compound 0.316 µM, first compound 10 µM
[19] = second compound 1 µM, first compound 0.0316 µM
[20] = second compound 1 µM, first compound 0.1 µM
[21] = second compound 1 µM, first compound 0.316 µM
[22] = second compound 1 µM, first compound 1 µM
[23] = second compound 1 µM, first compound 3.16 µM
[24] = second compound 1 µM, first compound 10 µM
[25] = second compound 3.16 µM, first compound 0.0316 µM
[26] = second compound 3.16 µM, first compound 0.1 µM
[27] = second compound 3.16 µM, first compound 0.316 µM
[28] = second compound 3.16 µM, first compound 1 µM
[29] = second compound 3.16 µM, first compound 3.16 µM
[30] = second compound 3.16 µM, first compound 10 µM
[31] = second compound 10 µM, first compound 0.0316 µM
[32] = second compound 10 µM, first compound 0.1 µM
[33] = second compound 10 µM, first compound 0.316 µM
[34] = second compound 10 µM, first compound 1 µM
[35] = second compound 10 µM, first compound 3.16 µM
[36] = second compound 10 µM, first compound 10 µM
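Note: spheroids exposed to compounds for 7 days before readout.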
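Throughout, for viability, T/C: 100% = DMSO vehicle wells with luminescence normalized to vehicle control.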

## COc1ccc([C@@H](O)c2cc(-c3ncnc4cc(N5CCOCC5)ccc34)c(F)cc2Cl)nn1 + CN1CCN(c2cc(C(=O)Nc3cc4cc(-c5cnn(C)c5)ccc4cn3)ccn2)CC1
Second compound 0.0316 µM
  IC50: > 10000 nM
Second compound 0.1 µM
  IC50: > 10000 nM
Second compound 0.316 µM
  IC50: < 31.6 nM
Second compound 1 µM
  IC50: < 31.6 nM
Second compound 3.16 µM
  IC50: < 31.6 nM
Second compound 10 µM
  IC50: < 31.6 nM
[1]
  viability, T/C: 87.3%
[2]
  viability, T/C: 95.6%
[3]
  viability, T/C: 88.1%
[4]
  viability, T/C: 85.4%
[5]
  viability, T/C: 96.9%
[6]
  viability, T/C: 103%
[7]
  viability, T/C: 88.1%
[8]
  viability, T/C: 91.6%
[9]
  viability, T/C: 86.3%
[10]
  viability, T/C: 113%
[11]
  viability, T/C: 105%
[12]
  viability, T/C: 97.9%
[13]
  viability, T/C: 12.2%
[14]
  viability, T/C: 18.2%
[15]
  viability, T/C: 17.1%
[16]
  viability, T/C: 11.9%
[17]
  viability, T/C: 16.2%
[18]
  viability, T/C: 13.2%
[19]
  viability, T/C: 0.83%
[20]
  viability, T/C: 0.2%
[21]
  viability, T/C: 1.54%
[22]
  viability, T/C: 0.18%
[23]
  viability, T/C: 0.2%
[24]
  viability, T/C: 1.34%
[25]
  viability, T/C: 0.14%
[26]
  viability, T/C: 0.2%
[27]
  viability, T/C: 0.18%
[28]
  viability, T/C: 0.18%
[29]
  viability, T/C: 1.47%
[30]
  viability, T/C: 1.21%
[31]
  viability, T/C: 0.1%
[32]
  viability, T/C: 0.16%
[33]
  viability, T/C: 0.24%
[34]
  viability, T/C: 0.19%
[35]
  viability, T/C: 0.2%
[36]
  viability, T/C: 1.44%

## COc1cccc2c1C(=O)c1c(O)c3c(c(O)c1C2=O)CC(O)(C(=O)CO)CC3OC1CC(N)C(O)C(C)O1 (stereo unspecified) + CN1CCN(c2cc(C(=O)Nc3cc4cc(-c5cnn(C)c5)ccc4cn3)ccn2)CC1
Second compound 0.0316 µM
  IC50: 308 nM
Second compound 0.1 µM
  IC50: 247 nM
Second compound 0.316 µM
  IC50: < 31.6 nM
Second compound 1 µM
  IC50: < 31.6 nM
Second compound 3.16 µM
  IC50: < 31.6 nM
Second compound 10 µM
  IC50: < 31.6 nM
[1]
  viability, T/C: 105%
[2]
  viability, T/C: 109%
[3]
  viability, T/C: 48.1%
[4]
  viability, T/C: 9.14%
[5]
  viability, T/C: 0.19%
[6]
  viability, T/C: 0.25%
[7]
  viability, T/C: 115%
[8]
  viability, T/C: 89.1%
[9]
  viability, T/C: 40.7%
[10]
  viability, T/C: 5.59%
[11]
  viability, T/C: 0.19%
[12]
  viability, T/C: 0.21%
[13]
  viability, T/C: 18.3%
[14]
  viability, T/C: 13.6%
[15]
  viability, T/C: 6.17%
[16]
  viability, T/C: 0.17%
[17]
  viability, T/C: 1.79%
[18]
  viability, T/C: 0.82%
[19]
  viability, T/C: 0.13%
[20]
  viability, T/C: 0.18%
[21]
  viability, T/C: 0.16%
[22]
  viability, T/C: 0.17%
[23]
  viability, T/C: 3.15%
[24]
  viability, T/C: 0.74%
[25]
  viability, T/C: 1.46%
[26]
  viability, T/C: 0.16%
[27]
  viability, T/C: 0.94%
[28]
  viability, T/C: 2.29%
[29]
  viability, T/C: 2.17%
[30]
  viability, T/C: 1.43%
[31]
  viability, T/C: 0.09%
[32]
  viability, T/C: 0.11%
[33]
  viability, T/C: 0.22%
[34]
  viability, T/C: 2.57%
[35]
  viability, T/C: 0.16%
[36]
  viability, T/C: 1.03%

## C=C(F)C(=O)N1CCN(c2nc(OCC3CCCN3C)nc3c2CCN(c2cccc4cccc(Cl)c24)C3)CC1CC#N (stereo unspecified) + CNC(=O)c1ccc(Nc2nc(OC3CCCC3)c3c(-c4ccc5nc(C)oc5c4)c[nH]c3n2)c(OC)c1
Second compound 0.0316 µM
  IC50: 5870 nM
Second compound 0.1 µM
  IC50: 3910 nM
Second compound 0.316 µM
  IC50: < 31.6 nM
Second compound 1 µM
  IC50: < 31.6 nM
Second compound 3.16 µM
  IC50: < 31.6 nM
Second compound 10 µM
  IC50: < 31.6 nM
[1]
  viability, T/C: 116%
[2]
  viability, T/C: 79.8%
[3]
  viability, T/C: 116%
[4]
  viability, T/C: 101%
[5]
  viability, T/C: 127%
[6]
  viability, T/C: 0.2%
[7]
  viability, T/C: 57.3%
[8]
  viability, T/C: 58.6%
[9]
  viability, T/C: 53.5%
[10]
  viability, T/C: 68.6%
[11]
  viability, T/C: 68.4%
[12]
  viability, T/C: 0.17%
[13]
  viability, T/C: 35.9%
[14]
  viability, T/C: 33.5%
[15]
  viability, T/C: 34.2%
[16]
  viability, T/C: 28.8%
[17]
  viability, T/C: 37.1%
[18]
  viability, T/C: 0.14%
[19]
  viability, T/C: 20.6%
[20]
  viability, T/C: 26.6%
[21]
  viability, T/C: 29.4%
[22]
  viability, T/C: 22.3%
[23]
  viability, T/C: 22.9%
[24]
  viability, T/C: 0.13%
[25]
  viability, T/C: 16.9%
[26]
  viability, T/C: 19.2%
[27]
  viability, T/C: 17.3%
[28]
  viability, T/C: 17.1%
[29]
  viability, T/C: 17.4%
[30]
  viability, T/C: 0.17%
[31]
  viability, T/C: 17.4%
[32]
  viability, T/C: 18.9%
[33]
  viability, T/C: 16.9%
[34]
  viability, T/C: 16.4%
[35]
  viability, T/C: 18.4%
[36]
  viability, T/C: 0.23%
